From patent US11192849B2, “Compounds, compositions, and methods for modulating ferroptosis and treating excitotoxic disorders” (THE TRUSTEES OF COLUMBIA UNIVERSITY IN THE CITY OF NEW YORK, priority 2013, dated 2021)
Where two headings read alike, the source gives them in different places. Non-standard residues stand in square brackets, D forms with d. Residues, ends and D or L forms follow the SMILES beside them. *: point of attachment. Nle = CCCC[C@H](N)C(=O)O; Cbz = O=C(OCc1ccccc1)*; CH2F = FC*

Legend:
[1] = tested on: HT-1080, BJeLR and Calu-1 cells; assay: Modulatory profiling of cell death inhibitors against erastin; format: cell-based, human; details: erastin 10 μM, 24 hours; 10-point, 4-fold dilution series
Procedure: The day before the experiment, cells were seeded in black, 384-well clear bottom plates (Corning) at a density of 1,000 cells/well using a Beckman Biomek FX Workstation. All compounds (except 3-methyladenine and chloroquine, which were diluted in water) were diluted in DMSO at 250 times the final highest test concentration, and aliquoted across a 384-well plate (Greiner, Monroe, N.C.). A ten-point, 4-fold dilution series of each inhibitor in DMSO was made using a multichannel pipette. Replicates of this mother plate were stored at −20° C. […] Medium was removed from cells and replaced with 36 μL medium containing DMSO (0.1%) or erastin (10 μM final concentration). Using the Biomek FX, 4 μL were then transferred from each inhibitor daughter plate into the DMSO-containing or erastin-containing assay plates. For 3-methyladenine and chloroquine, inhibitors were prepared fresh in media at 10-fold the final concentration in the presence of DMSO or 10 μM erastin. These solutions were manually pipetted onto cells in 384-well format. Assay plates were incubated at 37° C. for 24 hours. Viability was assessed using Alamar Blue.
The modulatory effect (Me) for drug-drug interactions was computed as follows. First, plate-based background correction was performed using Alamar Blue values from empty (cell-free) wells included on each plate. Next, within each experiment, 100% viability is determined as the average Alamar Blue score for cells treated with modulator=DMSO and lethal=DMSO, and all Alamar Blue values were scaled from 0 to 1 with the DMSO×DMSO condition=1. The individual effects of each modulator and lethal (e.g. in the presence of DMSO) at all tested doses were then ascertained. […] Next, BExp was compared to the actual observed viability. […] By default, Me in DMSO-treated cells is equal to 0. […] Me values for each inhibitor-lethal drug combination were hierarchically clustered and plotted as a heatmap using the heatmaps.2 function of the gplots library in R.

HT-1080 cells [2] = assay: Inhibition of erastin (10 μM)-induced death in HT-1080 cells (Alamar Blue); format: cell-based, human; details: for protection when added after erastin: added up to 6 hours after erastin; for EC50: Homo sapiens, read-out: EC50
Procedure: Cell viability was typically assessed in 384-well format by Alamar Blue (Invitrogen) fluorescence (ex/em 530/590) measured on a Victor3 platereader (Perkin Elmer, Waltham, Mass.). In some experiments, Trypan Blue dye exclusion counting was performed using an automated cell counter (ViCell, Beckman-Coulter Inc., Brea, Calif.). Cell viability in test conditions is reported as a percentage relative to the negative control treatment.
The ability of various compounds disclosed herein to inhibit death in erastin (10 μM)-treated HT-1080 cells were tested. Cell viability was assessed by Alamar Blue. EC50 values (nM) were computed from dose response curves.
HT-1080 cells are cultured in DMEM containing 10% fetal bovine serum, 1% supplemented non-essential amino acids and 1% pen/strep mixture (Gibco) and maintained in a humidified environment at 37° C. with 5% CO2 in a tissue culture incubator. 1,000 HT-1080 cells are seeded per well in duplicate 384-well plates (Corning) using a BioMek FX liquid handling robot (Beckman Coulter). The next day, the medium is replaced with 36 μL of medium containing 10 μM erastin with 4 μL of medium containing a dilution series (previously prepared) of DMSO, Fer-1 (positive control) or Fer-1 analogs. 24 hours later, 10 μL Alamar Blue (Invitrogen) cell viability solution is added to the growth media to a final concentration of 10%. Cells are incubated a further 6 hours and then the Alamar Blue fluorescence intensity recorded using a Victor 3 platereader (PerkinElmer)(ex/em 530/590). All experiments are performed at least twice and the background (no cells)-subtracted Alamar Blue values for each combination are averaged between replicates.

HT-1080 cells [3] = assay: Cytosolic and lipid ROS production (H2DCFDA, C11-BODIPY flow cytometry) in HT-1080 cells; format: cell-based, human; details: erastin (10 μM)
Procedure: The day before the experiment, 200,000 cells/well were seeded in 6-well dishes (Corning Inc., Corning, N.Y.). The day of the experiment, cells were treated with test compounds for the indicated times, then harvested by trypsinization, resuspended in 500 μL Hanks Balanced Salt Solution (HBSS, Gibco, Invitrogen Corp., Carlsbad, Calif.) containing either H2DCFDA (25 μM), C11-BODIPY(581/591) (2 μM) or MitoSOX (5 μM) (all from Molecular Probes, Invitrogen) and incubated for 10 minutes at 37° C. in a tissue culture incubator. Cells were then resuspended in 500 μL of fresh HBSS, strained through a […] cell strainer (BD Falcon, BD Biosciences, San Jose, Calif.), and analyzed using a flow cytometer (FACSCalibur or Accuri C6, BD Biosciences), which was equipped with 488-nm laser for excitation. Data was collected from the FL1 (H2DCFDA, C11-BODIPY) or FL2 channel (MitoSOX). A minimum of 10,000 cells were analyzed per condition.

[4] = Metabolic stability in mouse liver microsomes; format: in vitro ADME; details: for half-life at 0.5 μM: mouse, liver microsomes
Procedure: Test compounds (0.5 μM) were incubated at 37° C. for up to 45 minutes in 50 mM of potassium phosphate buffer (pH 7.4) containing mouse liver microsomal protein (0.5 mg/mL) and an NADPH generating system (0.34 mg/mL β-nicotinamide adenine dinucleotide phosphate (NADP), 1.56 mg/mL glucose-6-phosphate, 1.2 units/mL glucose-6-phosphate dehydrogenase). At 0, 5, 15, 30, and 45 minute intervals, an aliquot was taken and quenched with acetonitrile (ACN) containing internal standard. No-cofactor controls at 45 minutes were prepared. Following completion of the experiment, the samples were analyzed by LC-MS/MS.
The half-life (t1/2) was calculated using the following equation: t1/2=0.693/k Where, k is the elimination rate constant of test compounds obtained by fitting the data to the equation: C=initial×exp(−k×t) Intrinsic clearance (Clint) is calculated as liver clearance from the half-life using the following equation: […]
0.5 mg protein/mL incubation
Ethoxycoumarin was used as a control.

[5] = In vitro stability study in mouse plasma; format: in vitro ADME; details: for Percent Remaining / Sum of Peak Area Ratios: 37° C.
Procedure: The assay was conducted by incubating 1 μM of test compounds with Mouse Plasma (Strain […]) for a series of incubation times (0, 15, 30, 60, 120 minutes) at various temperatures (wet ice, room temperature, or 37° C.) with 5% CO2 and shaking (130 rpm). At each time point, the samples were quenched with 200 μL of stop solution containing an internal standard and kept on ice. The samples were analysed by LC-MS/MS.

CCOC(=O)[C@H]1O[C@@H]1C(=O)N[C@@H](CC(C)C)C(=O)NCCC(C)C (relative stereo) [Compound E64d, (2S,3S)-trans-epoxysuccinyl-L-leucylamido-3-methylbutane ethyl ester]
modulation of erastin-induced death [1]: not consistently modulated

Cn1cnc(N)c2ncnc1-2 [3-methyladenine]
modulation of erastin-induced death [1]: not consistently modulated

CCCC[C@@H](C=O)NC(=O)[C@H](CC(C)C)NC(=O)[C@H](CC(C)C)NC(C)=O [ALLN, N-Acetyl-Leu-Leu-Nle-CHO] (Ac-Leu-Leu-[Nle]-aldehyde)
modulation of erastin-induced death [1]: not consistently modulated

C[C@@H]1C[C@@H]([C@H](O)CC2CC(=O)NC(=O)C2)C(=O)[C@@H](C)C1 [CHX, cycloheximide]
modulation of erastin-induced death [1]: to a weaker extent

N#CC(=C(N)Sc1ccccc1N)C(C#N)=C(N)Sc1ccccc1N [Compound U0126, 1,4-diamino-2,3-dicyano-1,4-bis (2-aminophenylthio)butadiene]
protection when added after erastin (HT-1080 cells [2]): substantial protection from death | effect of inhibitor on erastin-induced ROS accumulation (HT-1080 cells [3]): prevented the accumulation of H2DCFDA-sensitive ROS | modulation of erastin-induced death [1]: rescued from erastin-induced death

CC(C)OC(=O)c1ccc(NC23CC4CC(CC(C4)C2)C3)c(/N=C\c2cncnc2)c1 [SRS16-80, isopropyl 4-(adamantylamino)-3-(pyrimidin-5-ylmethyleneamino)benzoate]
fold lower potency caused by the imine (HT-1080 cells [2]; HT-1080, erastin (10 μM)): about 6 fold | EC50 (HT-1080 cells [2]; HT-1080, Example 15, erastin (10 μM), HT-1080): ~300 nM | EC50 (HT-1080 cells [2]; HT-1080, Table 1 (Example 10), erastin (10 μM)-treated HT-1080 cells): 583 nM | Elimination rate constant (k) ([4]; Mouse, Compound Conc = 0.5 μM): 0.0089 | Intrinsic Clearance (CLint) (mL/min/g liver) ([4]; Mouse, Compound Conc = 0.5 μM): 0.94 mL/min/g liver | half-life at 0.5 μM ([4]; pH 7.4, Mouse, Compound Conc = 0.5 μM, read-out: Half life (t½)): 1.29 h | half-life at 0.5 μM ([4]; pH 7.4, stated in the text of Example 15, read-out: T1/2 in mouse liver microsomes): 2.57 h | mouse plasma stability [5]: rapidly hydrolyzed | Percent Remaining ([5]; 0 minutes): 100.0% | Sum of Peak Area Ratios ([5]; 0 minutes): 0.382 | Percent Remaining ([5]; 15 minutes): 23.8% | Sum of Peak Area Ratios ([5]; 15 minutes): 0.0911 | Percent Remaining ([5]; 30 minutes): 9.9% | Sum of Peak Area Ratios ([5]; 30 minutes): 0.0379 | Percent Remaining ([5]; 60 minutes): 4.5% | Sum of Peak Area Ratios ([5]; 60 minutes): 0.017 | Percent Remaining ([5]; 120 minutes): 2.5% | Sum of Peak Area Ratios ([5]; 120 minutes): 0.0095 | half-life at 1 μM ([5]; C57BL/4, mouse, plasma, read-out: T1/2 in mouse plasma): < 0.25 h

CO/C1=C\C(C)=C\[C@@H](C)[C@@H](O)[C@@H](C)C/C(C)=C/C=C/[C@H](OC)[C@@H]([C@@H](C)[C@@H](O)[C@H](C)[C@@]2(O)C[C@@H](O)[C@H](C)[C@@H](C(C)C)O2)OC1=O [bafilomycin A1]
modulation of erastin-induced death [1]: not consistently modulated

CCN(CC)CCCC(C)Nc1ccnc2cc(Cl)ccc12 (centres unmarked) [chloroquine]
modulation of erastin-induced death [1]: not consistently modulated

Cc1c(C)c2c(c(C)c1O)CCC(C)(C(=O)O)O2 (centres unmarked) [trolox, 6-hydroxy-2,5,7,8-tetramethylchroman-2-carboxylic acid]
protection when added after erastin (HT-1080 cells [2]): substantial protection from death | effect of inhibitor on erastin-induced ROS accumulation (HT-1080 cells [3]): prevented the accumulation of H2DCFDA-sensitive ROS | modulation of erastin-induced death [1]: rescued from erastin-induced death

COC(=O)CC(NC(=O)C(C)NC(=O)C(NC(=O)OCc1ccccc1)C(C)C)C(=O)CF (stereo not drawn) [z-VAD-fmk, carbobenzyloxy-valyl-alanyl-aspartyl-[O-methyl]-fluoromethylketone] (Cbz-Val-Ala-Asp(OMe)-CH2F; configuration not given here)
modulation of erastin-induced death [1]: not consistently modulated
